# From patent US5498405A, “Indole alkaloids useful as UV protective and anti-inflammatory agents” (The Regents of the University of California, priority 1995, dated 1996)
# What was measured:
# [1] = system: mouse ear edema (Phorbol 12-myristate 13-acetate, PMA); assay: Inhibition of PMA-induced inflammation (edema) of the mouse ear; type: in vivo; conditions: PMA 2 μg/ear, 3 hours, 20 minutes
# Description: Inhibition of Inflammation (Edema) of the Mouse Ear
# Compounds 1 and 1R were topically applied in acetone to the inside pinnae of the ears of mice in a solution containing the edema-causing irritant, Phorbol 12-myristate 13-acetate (PMA). […] After 3 hours, 20 minutes incubation, the mice were sacrificed, the ears removed and bores taken and weighed. Edema was measured by subtracting the weight of the right ear (acetone control) from the weight of the left ear (treated). Results are recorded as % decrease (inhibition)or % increase (potentiation) in edema relative to the PMA control group edema.
# myeloperoxidase (MPO) = assay: Myeloperoxidase (MPO) enzyme assay in ear biopsies from treated mice; type: in vivo, mouse; conditions: pooled ear bores
# Text: Myeloperoxidase (MPO) Enzyme Assay
# The neutrophil-specific marker released from primary granules, myeloperoxidase (MPO), in ear biopsies from treated and untreated mouse ears was extracted and quantitated according to a modified method of Bradley, P. O., Priebat, D. A., Christensen, R. D. and Rothstein, G., "Measurement of cutaneous inflammation estimation of neutrophil content with an enzyme marker," J. Invest Dermatology 78: 206-209, 1982. This enzyme is indicative of the extravasation of pro-inflammation neutrophils from blood into the skin. Ear bores from each treatment group from mouse ear edema assays were pooled and homogenized in 80 mM sodium phosphate buffer (pH 5.4) containing 0.5% hexadecyltrimethylammonium bromide in a siliconized glass test tube for 1 min. at 0° C. using a Brinkman Polytron. The mixtures were centrifuged at 10,000×g at 4° C. for 30 min. Samples (10 μl) from each group were then assayed in a 96-well microtiter plate. The assay was initiated by adding 250 μl of o-dianisi-dine/phosphate reagent (0.28 mg of dianisidine added to 1 ml of 50 mM sodium phosphate containing […]) to each well. After a 30 minutes incubation of 37° C., the plates were read at 450 nm on a Molecular Devices microplate reader. Diluted control biopsies were utilized to develop a standard curve. Optical density values from drug-treated groups were compared to control groups to determine % of control values of enzyme activity.
# Solubility = type: physicochemical; conditions: after mild reduction (e.g., ascorbic acid)
smiles,measurement,setting,value
O=C1C(=Cc2ccc(O)cc2)c2[nH]c3ccccc3c2C1=C1C(=O)C(=Cc2ccc(O)cc2)C2=Nc3ccccc3C21 (centres unmarked) [Compound 1R],Dose Response Inhibition of Mouse Ear Edema,[1]; topical dose 1 ug/ear,22%
same,Dose Response Inhibition of Mouse Ear Edema,[1]; topical dose 5 ug/ear,17%
same,Dose Response Inhibition of Mouse Ear Edema,[1]; topical dose 10 ug/ear,49%
same,Dose Response Inhibition of Mouse Ear Edema,[1]; topical dose 50 ug/ear,94%
same,Inhibition of Mouse Ear Edema,[1]; topical dose 50 ug/ml (so in the source),94%
same,Dose Response Inhibition of Mouse Ear Edema,[1]; topical dose 100 ug/ear,95%
same,"MPO Enzyme Activity, % of Control",myeloperoxidase (MPO); dose 1 ug/ear,81%
same,"MPO Enzyme Activity, % of Control",myeloperoxidase (MPO); dose 5 ug/ear,82%
same,"MPO Enzyme Activity, % of Control",myeloperoxidase (MPO); dose 10 ug/ear,32%
same,"MPO Enzyme Activity, % of Control",myeloperoxidase (MPO); dose 100 ug/ear,10%
same,Solubility properties relative to Compound 1,Solubility,slightly improved solubility properties
